Values quoted from earlier work in patent publication US20110245279A1, “PREDICTIVE MARKER FOR EGFR INHIBITOR TREATMENT” (priority 2007, published 2011).
Like-named read-outs stand apart in the source and are kept apart here.

Columns and labels:
NSCLC [1] = system: NSCLC
NSCLC [2] = conditions: single agent; NSCLC patients for whom standard therapy for advanced disease has failed
[3] = patients with cancer receiving the 150 mg/day dose
[4] = randomized phase III trial, second line therapy of NSCLC

CCOC(=O)c1ccc(C#Cc2ccc3c(c2)C(C)(C)CCS3)nc1 [tazarotene]
expression of RARRES1 gene (RARRES1 gene): up regulated

CC(=O)O[C@@]12CO[C@@H]1C[C@H](O)[C@@]1(C)C(=O)[C@H](O)C3=C(C)[C@@H](OC(=O)[C@H](O)[C@@H](NC(=O)OC(C)(C)C)c4ccccc4)C[C@@](O)([C@@H](OC(=O)c4ccccc4)[C@H]21)C3(C)C [docetaxel]
survival (NSCLC [1]; second line vs best supportive care, after cisplatin-based first-line regimens had failed): improved survival

C#Cc1cccc(Nc2ncnc3cc(OCCOC)c(OCCOC)cc23)c1 [Tarceva, erlotinib]
survival (NSCLC [2]): significantly prolongs and improves the survival | drug levels in plasma [3]: > 500 ng/mL

Nc1nc2[nH]cc(CCc3ccc(C(=O)N[C@@H](CCC(=O)O)C(=O)O)cc3)c2c(=O)[nH]1 [pemetrexed]
efficacy compared with docetaxel (NSCLC [1]; [4]): clinically equivalent efficacy | side effects compared with docetaxel (NSCLC [1]; [4]): significantly fewer side effects
